# Results published in patent publication EP1304107A2, “Use of oxazolidinines derivatives for treating psoriasis” (PHARMACIA & UPJOHN COMPANY, priority 1997, dated 1999).
# Columns and labels:
# psoriasis = assay: Case report: treatment of a patient with chronic psoriasis (EXAMPLE A); assay type: in vivo, human; conditions: person
# Experimental: They had chronic psoriatic lesions of both elbows, groin, left leg, right leg, and lower back. The lesions were treated in the past with coal tar and topical steroids but not UV light. They were allergic to the excipients in the steroidal topical preparations.
# After six months it had returned to the pretreatment state.
# arthritis = assay: Case report: patient with arthritis treated for pneumonia (EXAMPLE B); assay type: in vivo, human; conditions: person (Subject No 1912); 625 mg twice daily intravenously for 3 days, then 8 days oral at the same dose; taking no medications at follow up
# [1] = after 625 mg twice daily for fourteen days
smiles,measurement,setting,value
"CC(=O)NC[C@H]1CN(c2ccc(N3CCOCC3)c(F)c2)C(=O)O1 [EXAMPLE 2, (S)-N-[[3-[3-Fluoro-4-(4-morpholinyl)phenyl]-2-oxo-5-oxazolidinyl]methyl]acetamide]",improvement in their psoriasis,"psoriasis; 625 mg twice daily for fourteen days (IV five days, then orally nine days), onset as soon as they started taking the medication",immediate improvement
same,clearing of the psoriasis,"psoriasis; 625 mg twice daily for fourteen days, no other psoriasis treatment, from the time they took the medication",complete clearing
same,time until psoriasis gradually began to return,psoriasis; [1],three
same,time until psoriasis had returned to the pretreatment state,psoriasis; [1],six
same,arthritis status stated by the patient at long term follow up,arthritis,arthritis was gone
